In ChEMBL document CHEMBL1201862, “PubChem BioAssay data set” (2004):
Counter-ions that a name gives are not always drawn.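 Cells were grown in 96-well plates and exposed to each compound for 48 hours at five concentrations; endpoints were interpolated linearly between bracketing concentrations, or set to the highest concentration if not reached. The concentration for 50% growth inhibition is given as GI50.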 Calls of active or inactive are those of the source. Rule as the data show it: active = GI50 up to about 1.1 µM and inactive = higher.

Key:
Test in all cases: NCI-60 cell line screen, 48 h
A498 = system: A498
A549 = system: A549
EKVX = system: EKVX
HCT-15 = system: HCT-15
HL-60 = system: HL-60
HOP-62 = system: HOP-62
HOP-92 = system: HOP-92
KM12 = system: KM12
LOX IMVI = system: LOX IMVI
MOLT-4 = system: MOLT-4
Malme-3M = system: Malme-3M
NCI-H460 = system: NCI-H460
RPMI-8226 = system: RPMI-8226
SK-OV-3 = system: SK-OV-3
SNB-19 = system: SNB-19
SNB-75 = system: SNB-75
TK-10 = system: TK-10
U-251 = system: U-251
UACC-257 = system: UACC-257
HCC 2998 = system: HCC 2998

| SMILES | GI50 (A498) | GI50 (A549) | GI50 (EKVX) | GI50 (HCT-15) [µM] | GI50 (HL-60) | GI50 (HOP-62) | GI50 (HOP-92) | GI50 (KM12) | GI50 (LOX IMVI) | GI50 (MOLT-4) | GI50 (Malme-3M) | GI50 (NCI-H460) | GI50 (RPMI-8226) | GI50 (SK-OV-3) | GI50 (SNB-19) | GI50 (SNB-75) | GI50 (TK-10) | GI50 (U-251) | GI50 (UACC-257) | GI50 (HCC 2998) |
| --- | --- | --- | --- | --- | --- | --- | --- | --- | --- | --- | --- | --- | --- | --- | --- | --- | --- | --- | --- | --- |
| CNCCC=C1c2ccccc2CCc2ccccc21 [NORTRIPTYLINE HYDROCHLORIDE] | 15.4 µM (inactive) | 16.6 µM (inactive) | 15.2 µM (inactive) | 17.1 | 16.1 µM (inactive) | 14.7 µM (inactive) | 13.7 µM (inactive) | 12.2 µM (inactive) | 13.2 µM (inactive) | 12.1 µM (inactive) | 15.8 µM (inactive) | 14.8 µM (inactive) | 12.6 µM (inactive) | 12.6 µM (inactive) | 16.6 µM (inactive) | 6.47 µM (inactive) | 14.8 µM (inactive) | 14.3 µM (inactive) | 7.67 µM (inactive) |  |
| CC1=N/C(=C\c2ccc([N+](=O)[O-])cc2)C(=O)O1 | > 100 µM (inactive) | > 100 µM (inactive) | > 100 µM (inactive) | > 100 | > 100 µM (inactive) | > 100 µM (inactive) | > 100 µM (inactive) | > 100 µM (inactive) |  | > 100 µM (inactive) | > 100 µM (inactive) | > 100 µM (inactive) | > 100 µM (inactive) |  | > 100 µM (inactive) |  | > 100 µM (inactive) | > 100 µM (inactive) | > 100 µM (inactive) | > 100 µM (inactive) |
| CCOC(=O)C1=C(c2ccccc2)N(C(C)=O)Cc2ccccc21 |  | 18.4 µM (inactive) | 29.6 µM (inactive) | 21.4 | 11 µM (inactive) | 19.6 µM (inactive) | 3.1 µM (inactive) | 15 µM (inactive) | 16 µM (inactive) | 12 µM (inactive) | 19.1 µM (inactive) | 14.3 µM (inactive) | 13.5 µM (inactive) | 29.9 µM (inactive) | 44.6 µM (inactive) | 18.6 µM (inactive) | 45.3 µM (inactive) | 17.2 µM (inactive) | 16.9 µM (inactive) | 24.7 µM (inactive) |
| C1=C2C3=[N+](CCCCC3)CC2Cc2ccsc21 (stereo not drawn) | 39.8 µM (inactive) | 21.5 µM (inactive) | 53.5 µM (inactive) | > 100 | 66.1 µM (inactive) | > 100 µM (inactive) | 76.7 µM (inactive) | 30.4 µM (inactive) | 84.7 µM (inactive) | > 100 µM (inactive) | 39.9 µM (inactive) | 29.9 µM (inactive) |  | > 100 µM (inactive) | 81.1 µM (inactive) | 29.9 µM (inactive) | 59.8 µM (inactive) | 17.2 µM (inactive) | 23.3 µM (inactive) |  |
| CC(C)[C@H]1NC(=O)[C@H]2N=C(O[C@@H]2C)[C@@H]2CCCN2C(=O)[C@H](Cc2ccccc2)NC(=O)[C@@H]2COC(=N2)[C@@H](Cc2ccccc2)NC(=O)[C@@H]2COC1=N2 |  | > 100 µM (inactive) | > 100 µM (inactive) | > 100 | > 100 µM (inactive) | > 100 µM (inactive) |  | > 100 µM (inactive) | > 100 µM (inactive) | > 100 µM (inactive) | > 100 µM (inactive) |  | > 100 µM (inactive) | > 100 µM (inactive) | > 100 µM (inactive) | 0.428 µM (active) | > 100 µM (inactive) | > 100 µM (inactive) | > 100 µM (inactive) | > 100 µM (inactive) |
| COc1cc2c(cc1OC)C1Cc3cc(OC)c(OC)cc3C(C2)O1 |  | > 100 µM (inactive) | > 100 µM (inactive) |  |  | > 100 µM (inactive) | > 100 µM (inactive) | > 100 µM (inactive) | > 100 µM (inactive) | 49.1 µM (inactive) |  | > 100 µM (inactive) | 35.2 µM (inactive) | > 100 µM (inactive) | > 100 µM (inactive) | > 100 µM (inactive) | > 100 µM (inactive) | > 100 µM (inactive) | > 100 µM (inactive) | > 100 µM (inactive) |
| Cc1cc(C)c(NC(=O)/C=C/c2ccccc2)c(C)c1 |  | > 100 µM (inactive) | > 100 µM (inactive) | 78 | 36.1 µM (inactive) | 38.9 µM (inactive) | 56.6 µM (inactive) | > 100 µM (inactive) |  | 7.64 µM (inactive) |  | > 100 µM (inactive) | > 100 µM (inactive) | > 100 µM (inactive) | 61.9 µM (inactive) | 3.93 µM (inactive) | > 100 µM (inactive) | > 100 µM (inactive) | > 100 µM (inactive) | > 100 µM (inactive) |
| CCC(=O)Nc1ccc(/N=C/c2cccc(Oc3ccccc3)c2)cc1 | > 100 µM (inactive) | > 100 µM (inactive) | 65.5 µM (inactive) | > 100 | 26.7 µM (inactive) | 37.2 µM (inactive) | 85.3 µM (inactive) | > 100 µM (inactive) | 29.6 µM (inactive) | 23.9 µM (inactive) | > 100 µM (inactive) |  | 21.8 µM (inactive) | > 100 µM (inactive) | > 100 µM (inactive) | > 100 µM (inactive) |  |  |  |  |
